Strand notation (5' to 3'): a small letter for the sugar, then the base; units joined by * are phosphorothioate-linked, units joined directly phosphodiester-linked; [ ] holds rarer units or linkages, { } end groups; capitals alone tell only the bases. e = 2'-O-(2-methoxyethyl) (MOE); [5mC] = 5-methylcytosine; d = 2'-deoxy (DNA)
Tests used:
human Factor 11 mRNA [1] = test: Dose-dependent inhibition of human Factor 11 in HepG2 cells, electroporation 0.7-20 uM (Example 4); format: cell-based; conditions: for percent inhibition of Factor 11 at 0.7 μM / percent inhibition of Factor 11 at 2.2 μM / percent inhibition of Factor 11 at 6.7 μM / percent inhibition of Factor 11 at 20 μM: relative to untreated control cells
Method in brief: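 HepG2 cells electroporated with antisense gapmers at 0.7, 2.2, 6.7 and 20 μM, treated ~16 h. Factor 11 mRNA quantified by qRT-PCR (primer probe set RTS 2966), normalised to RIBOGREEN total RNA; expressed as percent inhibition versus untreated control cells.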

human Factor 11 mRNA [2] = test: Dose-dependent inhibition of human Factor 11 in HepG2 cells, lipofectin 9.375-75 nM (Example 4); format: cell-based; conditions: for percent inhibition of Factor 11 at 9.375 nM / percent inhibition of Factor 11 at 18.75 nM / percent inhibition of Factor 11 at 37.5 nM / percent inhibition of Factor 11 at 75 nM: relative to untreated control cells
Method in brief: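 HepG2 cells transfected via lipofectin with antisense oligonucleotide at 9.375, 18.75, 37.5 or 75 nM for about 16 h. Factor 11 mRNA quantified by real-time RT-PCR (primer probe set RTS 2966) and normalized to total RNA (RIBOGREEN). Results expressed as percent inhibition versus untreated cells.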

[3] = Tolerability in Sprague-Dawley rats: kidney function, urine protein/creatinine (Example 35); conditions: for Urine protein/creatinine ratio: Sprague Dawley rats; for BUN / Creatinine: Sprague-Dawley rats, plasma
Procedure: A control group of four Sprague Dawley rats was injected subcutaneously with PBS twice per week for 6 weeks. Body weight measurements were taken before and throughout the treatment period. Urine samples were taken before the start of treatment. Three days after the last dose, urine samples were taken and the rats were sacrificed. Organ weights were measured and blood was collected for further analysis.
To evaluate the effect of kidney function, plasma concentrations of blood urea nitrogen (BUN) and creatinine were measured using an automated clinical chemistry analyzer (Hitachi Olympus AU400e, Melville, N.Y.).

human Factor 11 mRNA [4] = test: Antisense inhibition of human Factor 11 in HepG2 cells by microwalk gapmers, lipofectin, 75 nM (Example 3); format: cell-based
Method in brief: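 HepG2 cells (10,000/well) were transfected via lipofectin with 75 nM 20-mer MOE gapmers (phosphorothioate, 5-methyl-C) for about 24 h. Factor 11 mRNA was measured by qRT-PCR, normalized to RIBOGREEN total RNA, and given as percent inhibition versus untreated cells.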

human Factor 11 mRNA [5] = test: Antisense inhibition of human Factor 11 in HepG2 cells, electroporation, 8,000 nM (Example 30); format: cell-based; conditions: electroporation, 8,000 nM antisense oligonucleotide
Method in brief: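 HepG2 cells electroporated with 8,000 nM 5-10-5, 5-8-5 or 6-8-6 MOE gapmers (phosphorothioate, 5-methylcytidine), ~24 h. Factor 11 mRNA quantified by qRT-PCR, normalised to RIBOGREEN total RNA. Reported as percent inhibition versus untreated cells.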

[6] = After treatment, 50 mg/kg s.c. twice per week for 6 weeks
[7] = Before antisense oligonucleotide treatment
[8] = HepG2 cells, lipofectin, gapmers targeted to nucleobases 1275 to 1318 of SEQ ID NO: 1
[9] = 50 mg/kg s.c. twice per week for 6 weeks
[10] = HepG2, lipofectin, ~24 h, gapmers targeted to nucleobases 656 to 704 of SEQ ID NO: 1

Substance | IC50 (human Factor 11 mRNA [1]) [µM] | percent inhibition of Factor 11 at 0.7 μM (human Factor 11 mRNA [1]) [%] | percent inhibition of Factor 11 at 2.2 μM (human Factor 11 mRNA [1]) [%] | percent inhibition of Factor 11 at 6.7 μM (human Factor 11 mRNA [1]) [%] | percent inhibition of Factor 11 at 20 μM (human Factor 11 mRNA [1]) [%] | IC50 (human Factor 11 mRNA [2]) [µM] | percent inhibition of Factor 11 at 9.375 nM (human Factor 11 mRNA [2]) [%] | percent inhibition of Factor 11 at 18.75 nM (human Factor 11 mRNA [2]) [%] | percent inhibition of Factor 11 at 37.5 nM (human Factor 11 mRNA [2]) [%] | percent inhibition of Factor 11 at 75 nM (human Factor 11 mRNA [2]) [%] | Urine protein/creatinine ratio [3, 6] | Urine protein/creatinine ratio [3, 7] | Percent inhibition of human Factor 11 mRNA levels (human Factor 11 mRNA [5]) [%] | % inhibition (human Factor 11 mRNA [4]; [8]) [%] | also measured
416838 (antisense GCAACCGGGATGATGAGTGC; 5-10-5 gapmer, further chemistry not given here) [compound 416838] | 5.1 | 5 | 30 | 55 | 83 | 0.019 | 31 | 51 | 64 | 86 | 3.7 | 1.2 | – | – | % inhibition (human Factor 11 mRNA [4]; HepG2 cells, lipofectin, gapmers targeted to nucleobases 1018 to 1042 of SEQ ID NO: 1): 94%
445531 (antisense eG*eG*e[5mC]*eA*eT*dT*dG*dG*dT*dG*d[5mC]*dA*d[5mC]*eA*eG*eT*eT*eT) [compound 445531] | – | – | – | – | – | – | – | – | – | – | – | – | 90 | – | –
413482 (antisense GGACGGCATTGGTGCACAGT; 5-10-5 MOE gapmer, further chemistry not given here) [compound 413482] | – | – | – | – | – | – | – | – | – | – | – | – | 88 | 89 | –
ISIS 417002: MOE gapmer, nucleobases 1275 to 1318 of SEQ ID NO: 1 (Table 8) (antisense GGTGCACAGTTTCTGGCAGG; MOE gapmer, wing and gap sizes not given here) | – | – | – | – | – | – | – | – | – | – | – | – | – | – | BUN [3, 9]: 11 mg/dL; Creatinine [3, 9]: 1 mg/dL
416925 (antisense GGTGCACAGTTTCTGGCAGG; 3-14-3 gapmer chemistry, further chemistry not given here) [compound 416925] | 3.9 | 0 | 40 | 76 | 80 | 0.03 | 13 | 38 | 59 | 75 | 4.3 | 1.0 | – | 98 | –
416999 (antisense GCACAGTTTCTGGCAGGCCT; 2-13-5 gapmer chemistry, further chemistry not given here) [compound 416999] | 2.8 | 20 | 42 | 77 | 88 | 0.03 | 24 | 37 | 55 | 73 | 9.1 | 1.3 | – | 92 | –
412223 (antisense ACAGTTTCTGGCAGGCCTCG; 5-10-5 MOE gapmer, further chemistry not given here) [compound 412223] | – | – | – | – | – | – | – | – | – | – | – | – | 62 | 85 | –
416856 (antisense GGCATTGGTGCACAGTTTCT; 5-10-5 gapmer, further chemistry not given here) [compound 416856] | 5.1 | 0 | 29 | 47 | 93 | 0.027 | 21 | 45 | 58 | 74 | – | – | 84 | 95 | –
445522 (antisense eG*e[5mC]*eA*e[5mC]*eA*dG*dT*dT*dT*d[5mC]*dT*dG*dG*e[5mC]*eA*eG*eG*e[5mC]) [compound 445522] | – | – | – | – | – | – | – | – | – | – | – | – | 91 | – | –
416892 (antisense GCCCTTCATGTCTAGGTCCA; 3-14-3 chimeric gapmer, further chemistry not given here) [compound 416892] | 2.5 | 14 | 52 | 82 | 92 | 0.023 | 16 | 50 | 70 | 85 | 21.3 | 0.8 | – | – | % inhibition (human Factor 11 mRNA [4]; [10]): 100%
ISIS 416838: MOE gapmer, nucleobases 1018 to 1042 of SEQ ID NO: 1 (Table 6) (antisense GCAACCGGGATGATGAGTGC; MOE gapmer, wing and gap sizes not given here) | – | – | – | – | – | – | – | – | – | – | – | – | – | – | BUN [3, 9]: 4 mg/dL; Creatinine [3, 9]: 5 mg/dL
412224 (antisense GCATTGGTGCACAGTTTCTG; 5-10-5 MOE gapmer, further chemistry not given here) [compound 412224] | – | – | – | – | – | – | – | – | – | – | – | – | 84 | 93 | –
412206 (antisense e[5mC]*e[5mC]*eG*eT*eG*d[5mC]*dA*dT*d[5mC]*dT*dT*dT*d[5mC]*dT*dT*eG*eG*e[5mC]*eA*eT) [compound 412206] | 2.7 | 22 | 39 | 81 | 94 | 0.021 | 24 | 47 | 69 | 86 | – | – | 91 | – | % inhibition (human Factor 11 mRNA [4]; HepG2 cells, lipofectin, gapmers targeted to nucleobases 738 to 762 of SEQ ID NO: 1): 93%
416826 (antisense ATGCCCTTCATGTCTAGGTC; 5-10-5 gapmer, further chemistry not given here) [compound 416826] | 3.2 | 2 | 47 | 86 | 82 | 0.029 | 8 | 36 | 58 | 84 | 11.4 | 1.0 | – | – | % inhibition (human Factor 11 mRNA [4]; [10]): 94%
ISIS 416850: MOE gapmer, nucleobases 1275 to 1318 of SEQ ID NO: 1 (Table 8) (antisense TGCACAGTTTCTGGCAGGCC; MOE gapmer, wing and gap sizes not given here) | – | – | – | – | – | – | – | – | – | – | – | – | – | – | BUN [3, 9]: 5 mg/dL; Creatinine [3, 9]: 7 mg/dL
412225 (antisense GCAGCGGACGGCATTGGTGC; 5-10-5 MOE gapmer, further chemistry not given here) [compound 412225] | – | – | – | – | – | – | – | – | – | – | – | – | 86 | 86 | –
ISIS 416858: MOE gapmer, nucleobases 1275 to 1318 of SEQ ID NO: 1 (Table 8) (antisense ACGGCATTGGTGCACAGTTT; MOE gapmer, wing and gap sizes not given here) | – | – | – | – | – | – | – | – | – | – | – | – | – | – | BUN [3, 9]: 8 mg/dL; Creatinine [3, 9]: 4 mg/dL
417003 (antisense TGGTGCACAGTTTCTGGCAG; 2-13-5 gapmer chemistry, further chemistry not given here) [compound 417003] | 3.9 | 0 | 34 | 75 | 89 | 0.033 | 26 | 44 | 60 | 56 | 4.8 | 0.9 | – | 89 | –
ISIS 416864: MOE gapmer, nucleobases 1275 to 1318 of SEQ ID NO: 1 (Table 8) (antisense GGCAGCGGACGGCATTGGTG; MOE gapmer, wing and gap sizes not given here) | – | – | – | – | – | – | – | – | – | – | – | – | – | – | BUN [3, 9]: 5 mg/dL; Creatinine [3, 9]: 6 mg/dL

Source: patent publication US20230263822A1, “MODULATION OF FACTOR 11 EXPRESSION” (Ionis Pharmaceuticals, Inc., priority 2008, published 2023)
